Reference: patent US10670605B2, “Cysteine reactive probes and uses thereof” (The Scripps Research Institute, priority 2015, dated 2020)

Experiments:
Experiment in all cases: Competitive isoTOP-ABPP, cell lysates
Format in all cases: binding
RRAGC C377 (Q9HB90) = RRAGC C377 (Q9HB90) (Homo sapiens, UniProt Q9HB90); conditions: for R value (DMSO/fragment): in vitro, MDA-MB-231; for isoTOP-ABPP ratio, Q9HB90_C377: invitro
CDK5 C157 (Q00535) = CDK5 C157 (Q00535) (Homo sapiens, UniProt Q00535); conditions: for isoTOP-ABPP ratio (reactivity profile), Q00535_C157: 500 μm in-vitro ramos
RRAGC C358 (Q9HB90) = RRAGC C358 (Q9HB90) (Homo sapiens, UniProt Q9HB90); conditions: for isoTOP-ABPP ratio, Q9HB90_C358: 231
USP16 C205 (Q9Y5T5) = USP16 C205 (Q9Y5T5) (Homo sapiens, UniProt Q9Y5T5)
USP48 C39 (Q86UV5) = biological target: T1, USP48 C39 (Q86UV5) (Homo sapiens, UniProt Q86UV5)
T1 sequence (Q86UV5 1-1035): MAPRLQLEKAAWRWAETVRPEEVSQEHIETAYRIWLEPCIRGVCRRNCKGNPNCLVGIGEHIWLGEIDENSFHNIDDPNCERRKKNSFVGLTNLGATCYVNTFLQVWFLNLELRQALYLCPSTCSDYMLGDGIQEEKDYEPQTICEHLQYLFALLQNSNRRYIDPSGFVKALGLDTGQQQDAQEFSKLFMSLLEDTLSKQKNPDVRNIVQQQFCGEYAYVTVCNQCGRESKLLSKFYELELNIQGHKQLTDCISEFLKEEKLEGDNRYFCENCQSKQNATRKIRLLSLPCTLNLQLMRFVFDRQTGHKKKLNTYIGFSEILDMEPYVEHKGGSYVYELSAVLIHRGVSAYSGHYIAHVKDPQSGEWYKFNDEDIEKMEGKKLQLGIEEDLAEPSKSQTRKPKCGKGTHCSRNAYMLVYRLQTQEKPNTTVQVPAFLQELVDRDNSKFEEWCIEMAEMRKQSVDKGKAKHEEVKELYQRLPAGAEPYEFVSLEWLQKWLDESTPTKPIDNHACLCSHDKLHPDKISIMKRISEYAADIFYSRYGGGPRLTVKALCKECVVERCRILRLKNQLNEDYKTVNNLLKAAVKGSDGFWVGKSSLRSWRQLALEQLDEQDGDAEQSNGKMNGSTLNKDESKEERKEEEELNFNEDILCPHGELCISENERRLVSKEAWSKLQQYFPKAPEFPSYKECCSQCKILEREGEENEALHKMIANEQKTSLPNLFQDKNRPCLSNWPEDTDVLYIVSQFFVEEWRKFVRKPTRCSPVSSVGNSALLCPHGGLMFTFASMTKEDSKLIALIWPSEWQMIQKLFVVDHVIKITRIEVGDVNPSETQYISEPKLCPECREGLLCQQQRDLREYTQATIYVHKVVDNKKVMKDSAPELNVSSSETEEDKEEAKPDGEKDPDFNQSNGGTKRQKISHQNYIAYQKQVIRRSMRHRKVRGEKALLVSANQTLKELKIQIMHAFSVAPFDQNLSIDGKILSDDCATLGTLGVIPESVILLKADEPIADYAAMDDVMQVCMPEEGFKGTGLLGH

CYR61 C39 (O00622) = biological target: T2, CYR61 C39 (O00622) (Homo sapiens, UniProt O00622); conditions: for R value (DMSO/fragment): in vitro, MDA-MB-231; for isoTOP-ABPP ratio, O00622_C39: invitro, 231; for isoTOP-ABPP ratio (reactivity profile), O00622_C39: 500 μm in-vitro ramos_231
T2 sequence (O00622 25-381): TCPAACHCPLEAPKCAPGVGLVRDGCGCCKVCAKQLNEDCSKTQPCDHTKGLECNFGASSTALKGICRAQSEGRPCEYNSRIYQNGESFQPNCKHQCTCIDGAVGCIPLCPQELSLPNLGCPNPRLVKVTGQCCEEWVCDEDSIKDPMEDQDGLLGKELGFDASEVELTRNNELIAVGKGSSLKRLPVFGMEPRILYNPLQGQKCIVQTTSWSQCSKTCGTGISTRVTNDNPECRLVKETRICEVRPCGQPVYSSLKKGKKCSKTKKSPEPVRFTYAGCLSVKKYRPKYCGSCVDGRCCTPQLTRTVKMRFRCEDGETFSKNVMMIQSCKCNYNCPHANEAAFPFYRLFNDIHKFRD

USP16 C205 (Q9Y5T5), sequence (Q9Y5T5 whole entry): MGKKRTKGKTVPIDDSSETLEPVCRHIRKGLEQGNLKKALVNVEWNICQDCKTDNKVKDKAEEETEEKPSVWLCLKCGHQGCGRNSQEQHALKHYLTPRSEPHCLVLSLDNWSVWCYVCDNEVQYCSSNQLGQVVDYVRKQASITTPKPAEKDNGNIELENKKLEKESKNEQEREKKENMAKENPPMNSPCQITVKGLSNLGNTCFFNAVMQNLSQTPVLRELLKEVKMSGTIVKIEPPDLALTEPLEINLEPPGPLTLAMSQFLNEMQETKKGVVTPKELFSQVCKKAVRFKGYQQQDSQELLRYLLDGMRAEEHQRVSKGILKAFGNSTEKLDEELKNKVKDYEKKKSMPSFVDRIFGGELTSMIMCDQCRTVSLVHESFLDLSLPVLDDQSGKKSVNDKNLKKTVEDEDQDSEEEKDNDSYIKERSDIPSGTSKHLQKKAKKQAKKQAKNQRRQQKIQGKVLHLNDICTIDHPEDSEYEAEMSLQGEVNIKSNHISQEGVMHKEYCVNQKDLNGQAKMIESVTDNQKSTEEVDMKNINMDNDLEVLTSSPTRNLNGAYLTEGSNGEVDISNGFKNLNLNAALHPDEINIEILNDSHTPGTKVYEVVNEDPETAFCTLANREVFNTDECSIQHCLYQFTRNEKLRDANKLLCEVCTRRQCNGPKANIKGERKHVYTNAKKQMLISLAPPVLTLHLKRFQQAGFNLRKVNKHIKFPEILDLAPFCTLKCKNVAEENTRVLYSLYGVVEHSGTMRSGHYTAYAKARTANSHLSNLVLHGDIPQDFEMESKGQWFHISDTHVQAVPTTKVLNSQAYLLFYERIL
CDK5 C157 (Q00535), sequence (Q00535 whole entry): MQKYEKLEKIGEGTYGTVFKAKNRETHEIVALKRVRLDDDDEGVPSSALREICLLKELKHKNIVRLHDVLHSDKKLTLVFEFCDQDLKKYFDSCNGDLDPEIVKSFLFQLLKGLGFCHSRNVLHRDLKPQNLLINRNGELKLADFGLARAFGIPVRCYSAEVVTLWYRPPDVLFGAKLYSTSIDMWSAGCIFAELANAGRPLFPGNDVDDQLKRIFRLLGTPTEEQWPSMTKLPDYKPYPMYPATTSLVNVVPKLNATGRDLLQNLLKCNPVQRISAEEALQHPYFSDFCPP
RRAGC C377 (Q9HB90), sequence (Q9HB90 2-399 limits assumed): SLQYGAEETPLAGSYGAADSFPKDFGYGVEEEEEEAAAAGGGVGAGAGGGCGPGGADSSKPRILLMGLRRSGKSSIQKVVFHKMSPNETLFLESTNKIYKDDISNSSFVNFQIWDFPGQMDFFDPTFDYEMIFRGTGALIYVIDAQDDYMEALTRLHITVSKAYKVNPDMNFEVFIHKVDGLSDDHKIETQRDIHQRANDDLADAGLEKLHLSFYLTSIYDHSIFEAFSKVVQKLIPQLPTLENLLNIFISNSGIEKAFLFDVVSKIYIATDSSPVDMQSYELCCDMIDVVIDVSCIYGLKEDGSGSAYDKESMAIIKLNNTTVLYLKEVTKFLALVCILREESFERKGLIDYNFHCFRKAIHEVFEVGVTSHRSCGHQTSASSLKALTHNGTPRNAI
RRAGC C377 (Q9HB90), sequence (Q7L523 whole entry partner, the tested form may be a part): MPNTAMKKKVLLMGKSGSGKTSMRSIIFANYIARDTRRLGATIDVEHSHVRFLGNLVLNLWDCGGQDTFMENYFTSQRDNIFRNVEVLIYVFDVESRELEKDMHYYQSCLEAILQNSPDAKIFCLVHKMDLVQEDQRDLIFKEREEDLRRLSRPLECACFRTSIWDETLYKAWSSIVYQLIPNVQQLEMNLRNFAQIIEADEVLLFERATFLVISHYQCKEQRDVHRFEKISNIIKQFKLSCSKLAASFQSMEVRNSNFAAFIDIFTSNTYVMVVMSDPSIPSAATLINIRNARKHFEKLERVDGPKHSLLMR
RRAGC C358 (Q9HB90), sequence (Q9HB90 2-399 limits assumed): as the sequence (Q9HB90 2-399 limits assumed) above
RRAGC C358 (Q9HB90), sequence (Q7L523 whole entry partner): as the sequence (Q7L523 whole entry partner, the tested form may be a part) above

## O=C(CCl)NC1C(O)OC(CO)C(O)C1O (mixture of isomers) [compound 44]
RRAGC C377 (Q9HB90); 500 μm, in-vitro_ramos_231
  isoTOP-ABPP reactivity profile ratio, Q9HB90_C377: 0.7

## COc1ccc2c(c1)CCCN2C(=O)CCl [compound 2]
CDK5 C157 (Q00535); 500 μM, invitro, ramos
  R value (DMSO/fragment): 3.2
RRAGC C358 (Q9HB90); 500 μM, in vitro, MDA-MB-231
  R value (DMSO/fragment): 20.0
RRAGC C358 (Q9HB90); 500 μM, invitro, ramos
  R value (DMSO/fragment): 20.0
RRAGC C377 (Q9HB90); 500 μM
  R value (DMSO/fragment): 20.0
USP16 C205 (Q9Y5T5); 500 μM, in vitro, MDA-MB-231
  R value (DMSO/fragment): 20.0
USP48 C39 (Q86UV5); 500 μM, invitro, ramos
  R value (DMSO/fragment): 7.1

## O=C(CCl)Nc1cc(C(F)(F)F)cc(C(F)(F)F)c1 [compound 3]
CDK5 C157 (Q00535); 500 μM, invitro, ramos
  R value (DMSO/fragment): 20.0
CYR61 C39 (O00622); 500 μM
  R value (DMSO/fragment): 4.0
RRAGC C358 (Q9HB90); 500 μM, in vitro, MDA-MB-231
  R value (DMSO/fragment): 1.2
RRAGC C377 (Q9HB90); 500 μM
  R value (DMSO/fragment): 3.7
USP16 C205 (Q9Y5T5); 500 μM, invitro, ramos
  R value (DMSO/fragment): 8.8
USP48 C39 (Q86UV5); 500 μM, in vitro, MDA-MB-231
  R value (DMSO/fragment): 1.8
USP48 C39 (Q86UV5); 500 μM, invitro, ramos
  R value (DMSO/fragment): 1.5

## COc1ccc(C2CC(c3cccs3)=NN2C(=O)CCl)cc1 (stereo not drawn) [compound 4]
CDK5 C157 (Q00535); 250 μM, in vitro, Ramos
  R value (DMSO/fragment): 1.3
CYR61 C39 (O00622); 250 μM
  R value (DMSO/fragment): 2.8
RRAGC C358 (Q9HB90); 250 μM, in vitro, MDA-MB-231
  R value (DMSO/fragment): 1.5
RRAGC C377 (Q9HB90); 250 μM
  R value (DMSO/fragment): 3.5
USP16 C205 (Q9Y5T5); 250 μM, in vitro, Ramos
  R value (DMSO/fragment): 20.0
USP48 C39 (Q86UV5); 250 μM, in vitro, MDA-MB-231
  R value (DMSO/fragment): 1.4
USP48 C39 (Q86UV5); 250 μM, in vitro, Ramos
  R value (DMSO/fragment): 1.4

## C=CC(=O)N(c1ccccc1)c1ccc(Br)cc1 [compound 5]
CDK5 C157 (Q00535); 500 μM, invitro, ramos
  isoTOP-ABPP ratio, Q00535_C157: 20.0
USP16 C205 (Q9Y5T5); 500 μM, invitro, ramos
  isoTOP-ABPP ratio, Q9Y5T5_C205: 1.1
USP48 C39 (Q86UV5); 500 μM, invitro, ramos
  isoTOP-ABPP ratio, Q86UV5_C39: 1.2

## CNS(=O)(=O)C=Cc1ccc2c(ccn2Cc2ccccc2)c1 [compound 6]
RRAGC C358 (Q9HB90); 500 μM, invitro
  isoTOP-ABPP ratio, Q9HB90_C358: 1.2

## O=C(CCl)N1CCN(S(=O)(=O)c2ccccc2F)CC1 [compound 10]
USP48 C39 (Q86UV5); 500 μM, invitro, 231
  isoTOP-ABPP ratio, Q86UV5_C39: 2.5

## Cn1cc(S(=O)(=O)N2CCOCC2)cc1C(=O)NC(=O)CCl [compound 11]
CDK5 C157 (Q00535); 500 μM, invitro, ramos
  isoTOP-ABPP ratio, Q00535_C157: 1.3
CYR61 C39 (O00622); 500 μM
  isoTOP-ABPP ratio, O00622_C39: 9.6
RRAGC C377 (Q9HB90); 500 μM, ramos
  isoTOP-ABPP ratio, Q9HB90_C377: 1.6
USP16 C205 (Q9Y5T5); 500 μM, invitro, 231
  isoTOP-ABPP ratio, Q9Y5T5_C205: 20.0
USP48 C39 (Q86UV5); 500 μM, invitro, ramos
  isoTOP-ABPP ratio, Q86UV5_C39: 1.0

## O=C(CCl)NC(=O)NC12CC3CC(CC(C3)C1)C2 [compound 12]
CDK5 C157 (Q00535); 500 μM, invitro, ramos
  isoTOP-ABPP ratio, Q00535_C157: 1.0
USP16 C205 (Q9Y5T5); 500 μM, invitro, 231
  isoTOP-ABPP ratio, Q9Y5T5_C205: 2.2

## O=C(CCl)NCCc1c[nH]c2ccccc12 [compound 13]
CYR61 C39 (O00622); 500 μM
  isoTOP-ABPP ratio, O00622_C39: 1.2
RRAGC C358 (Q9HB90); 500 μM, invitro
  isoTOP-ABPP ratio, Q9HB90_C358: 1.5
RRAGC C377 (Q9HB90); 500 μM, 231
  isoTOP-ABPP ratio, Q9HB90_C377: 2.1
USP16 C205 (Q9Y5T5); 500 μM, invitro, ramos
  isoTOP-ABPP ratio, Q9Y5T5_C205: 3.3
USP48 C39 (Q86UV5); 500 μM, invitro, 231
  isoTOP-ABPP ratio, Q86UV5_C39: 0.8
USP48 C39 (Q86UV5); 500 μM, invitro, ramos
  isoTOP-ABPP ratio, Q86UV5_C39: 0.6

## C=CC(=O)N(Cc1cccnc1)c1ccc(Oc2ccccc2)c(C(F)(F)F)c1 [compound 15]
RRAGC C358 (Q9HB90); 500 μM, invitro
  isoTOP-ABPP ratio, Q9HB90_C358: 1.1
USP48 C39 (Q86UV5); 500 μm in-vitro ramos
  isoTOP-ABPP ratio (reactivity profile), Q86UV5_C39: 0.7

## O=C(CCl)N1CCC(C(O)(c2ccccc2)c2ccccc2)CC1 [compound 20]
CDK5 C157 (Q00535)
  isoTOP-ABPP ratio (reactivity profile), Q00535_C157: 2.0
USP48 C39 (Q86UV5); 500 μm in-vitro ramos
  isoTOP-ABPP ratio (reactivity profile), Q86UV5_C39: 1.8
USP48 C39 (Q86UV5); 500 μm in-vitro ramos_231
  isoTOP-ABPP ratio (reactivity profile), Q86UV5_C39: 1.1

## O=C(CCl)NC12CC3CC(CC(C3)C1)C2 [compound 21]
RRAGC C358 (Q9HB90); 500 μm in-vitro ramos_231
  isoTOP-ABPP ratio (reactivity profile), Q9HB90_C358: 1.2
RRAGC C377 (Q9HB90); 500 μm in-vitro ramos_231
  isoTOP-ABPP ratio (reactivity profile), Q9HB90_C377: 1.4
USP16 C205 (Q9Y5T5); 500 μm in-vitro ramos_231
  isoTOP-ABPP ratio (reactivity profile), Q9Y5T5_C205: 1.6
USP48 C39 (Q86UV5); 500 μm in-vitro ramos
  isoTOP-ABPP ratio (reactivity profile), Q86UV5_C39: 1.2
USP48 C39 (Q86UV5); 500 μm in-vitro ramos_231
  isoTOP-ABPP ratio (reactivity profile), Q86UV5_C39: 20.0

## O=C(CCl)N1CCOCC1 [compound 22]
CDK5 C157 (Q00535)
  isoTOP-ABPP ratio (reactivity profile), Q00535_C157: 0.9
RRAGC C358 (Q9HB90); 500 μm in-vitro ramos_231
  isoTOP-ABPP ratio (reactivity profile), Q9HB90_C358: 1.7
RRAGC C377 (Q9HB90); 500 μm in-vitro ramos
  isoTOP-ABPP ratio (reactivity profile), Q9HB90_C377: 0.9
RRAGC C377 (Q9HB90); 500 μm in-vitro ramos_231
  isoTOP-ABPP ratio (reactivity profile), Q9HB90_C377: 1.7
USP16 C205 (Q9Y5T5); 500 μm in-vitro ramos
  isoTOP-ABPP ratio (reactivity profile), Q9Y5T5_C205: 1.6

## N#C/C(=C\c1cc(C(F)(F)F)cc(C(F)(F)F)c1)C(N)=O [compound 23]
CDK5 C157 (Q00535)
  isoTOP-ABPP ratio (reactivity profile), Q00535_C157: 2.8
CYR61 C39 (O00622)
  isoTOP-ABPP ratio (reactivity profile), O00622_C39: 4.4
RRAGC C377 (Q9HB90); 500 μm in-vitro ramos_231
  isoTOP-ABPP ratio (reactivity profile), Q9HB90_C377: 1.5
USP16 C205 (Q9Y5T5); 500 μm in-vitro ramos
  isoTOP-ABPP ratio (reactivity profile), Q9Y5T5_C205: 1.2
USP48 C39 (Q86UV5); 500 μm in-vitro ramos
  isoTOP-ABPP ratio (reactivity profile), Q86UV5_C39: 1.3

## CC(Br)C(=O)Nc1cc(C(F)(F)F)cc(C(F)(F)F)c1 (stereo not drawn) [compound 24]
RRAGC C358 (Q9HB90); 500 μm in-vitro ramos
  isoTOP-ABPP ratio (reactivity profile), Q9HB90_C358: 0.9
RRAGC C377 (Q9HB90); 500 μm in-vitro ramos
  isoTOP-ABPP ratio (reactivity profile), Q9HB90_C377: 1.5
USP48 C39 (Q86UV5); 500 μm in-vitro ramos
  isoTOP-ABPP ratio (reactivity profile), Q86UV5_C39: 1.0

## CC(Cl)C(=O)Nc1cc(C(F)(F)F)cc(C(F)(F)F)c1 (stereo not drawn) [compound 25]
CYR61 C39 (O00622)
  isoTOP-ABPP ratio (reactivity profile), O00622_C39: 1.0
RRAGC C358 (Q9HB90); 500 μm in-vitro ramos_231
  isoTOP-ABPP ratio (reactivity profile), Q9HB90_C358: 0.9
RRAGC C377 (Q9HB90); 500 μm in-vitro ramos_231
  isoTOP-ABPP ratio (reactivity profile), Q9HB90_C377: 1.0
USP48 C39 (Q86UV5); 500 μm in-vitro ramos_231
  isoTOP-ABPP ratio (reactivity profile), Q86UV5_C39: 1.0
